# Measurements from PMC8153426, “EfgA is a conserved formaldehyde sensor that leads to bacterial growth arrest in response to elevated formaldehyde” (PLoS Biology, 2021).
# B1: EfgA (Mext_4158, DUF336 protein) from Methylorubrum extorquens PA1, N-terminal His-tagged derivative (natural protein)
# chain: MHVTIEQAEKAIQAARAKAVELGTQMCIAIVDSGGNLKAFHRMDGAWVGSIDIAQKKAKTAVFFGMKTGQIGALSQPGGSLYGIEHSNQGLITFPGGIPIVDADGEMSGAIGVSGSSVENDDAVALAGASAIGDTELPDHPWRT
# notes: EfgA, product of Mext_4158 of Methylorubrum extorquens PA1; single-domain 144 amino acid protein with a DUF336 domain; Residue numbers S114, D121, K57 are said to correspond to the native EfgA protein; The simulations count 134 EfgA residues in the structure against 144 in the gene product; also called EfgA^WT; enhanced formaldehyde growth protein A; not shown: His6 (thrombin cleavable), …
# Tests used:
# [1] = target: T1, EfgA (Methylorubrum extorquens, UniProt P0DX96); assay: X-ray crystal structure of formaldehyde-soaked crystals, […] Å; assay type: binding
# T1 construct: N-terminal His-tagged EfgA, homotetramer
# [2] = target: T2, EfgA (Methylorubrum extorquens, UniProt P0DX96); assay: microscale thermophoresis (Kd), confirmed by mITC; assay type: binding
# T2 construct: recombinant EfgA with C-terminal 6X-His tag
# T2 sequence (P0DX96 1-144): B1 chain
# From the text: microscale thermophoresis (Kd), confirmed by mITC on EfgA | MST was used to both independently confirm the interaction of EfgA with formaldehyde and permit calculation of its affinity
# [3] = target: the molecule itself; assay: crystal structure; apo EfgA crystals (0.2 M potassium fluoride, 2.2 M ammonium sulfate, 10°C) and crystals with 16.6 mM formaldehyde (0.2 M KNO3, 2.2 M ammonium sulfate, 10°C); 4 molecules per asymmetric unit
molecule,measurement,setting,value
OCOCO [oxydimethanol],"X-ray crystal structure of formaldehyde-soaked crystals, 1.83 Å",[1],"In three EfgA monomers, new densities were modeled as oxydimethanol"
C=O [formaldehyde],Kd,[2],8.01 ± 3.5 mM
B1,stoichiometry N,[3],4
